Results as given in ChEMBL document CHEMBL3867426, “Synthesis and biological evaluation of 6-fluoro-3-phenyl-7-piperazinyl quinolone derivatives as potential topoisomerase I inhibitors” (Eur J Med Chem, 2016).
Calls of active or inactive are those of the source. No cut-off for these calls is given here.

How the values were obtained:
[1] = Antiproliferative activity against human BGC823 cells after 48 hrs by MTT assay; format: functional, cell-based; settings: BGC-823, 48 h
cells [2] = settings: Homo sapiens, A549, 48 h
cells [3] = settings: Homo sapiens, HeLa, 48 h
cells [4] = settings: Homo sapiens, HepG2, 48 h
[5] = molecular target: T1, DNA topoisomerase 1 (Homo sapiens) (UniProt P11387); assay: Inhibition of DNA topoisomerase 1 (unknown origin)-mediated relaxation of supercoiled pBR322 plasmid DNA at 100 uM after 30 mins by agarose gel electrophoresis
T1 sequence (whole entry): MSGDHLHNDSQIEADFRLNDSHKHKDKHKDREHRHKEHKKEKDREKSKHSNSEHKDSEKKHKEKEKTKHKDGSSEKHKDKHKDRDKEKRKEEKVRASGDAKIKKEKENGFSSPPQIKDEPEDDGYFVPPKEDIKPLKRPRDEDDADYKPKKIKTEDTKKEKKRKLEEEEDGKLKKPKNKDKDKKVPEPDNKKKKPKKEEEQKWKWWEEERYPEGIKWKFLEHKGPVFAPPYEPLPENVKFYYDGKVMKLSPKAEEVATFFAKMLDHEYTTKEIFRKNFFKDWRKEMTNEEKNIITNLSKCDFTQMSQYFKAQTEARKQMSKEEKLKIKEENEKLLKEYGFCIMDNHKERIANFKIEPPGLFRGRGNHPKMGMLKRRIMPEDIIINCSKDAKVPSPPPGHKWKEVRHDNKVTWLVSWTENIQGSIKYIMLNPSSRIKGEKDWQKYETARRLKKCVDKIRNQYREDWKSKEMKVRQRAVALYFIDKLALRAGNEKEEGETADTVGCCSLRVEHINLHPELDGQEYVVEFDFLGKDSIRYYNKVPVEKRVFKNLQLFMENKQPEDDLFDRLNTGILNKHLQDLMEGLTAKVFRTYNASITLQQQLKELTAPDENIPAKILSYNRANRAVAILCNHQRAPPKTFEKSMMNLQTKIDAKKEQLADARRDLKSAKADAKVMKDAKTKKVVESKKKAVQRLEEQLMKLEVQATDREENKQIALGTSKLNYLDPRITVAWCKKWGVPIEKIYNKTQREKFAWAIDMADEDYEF

[6] = Solubility of the compound in Tris/glycine/SDS buffer at pH 7.9; format: physicochemical
[7] = Cell cycle arrest in human A549 cells assessed as accumulation at G2 phase at 0.5 uM after 24 hrs by propidium iodide staining based flow cytometric analysis (reference value: 22.51%); format: functional
[8] = Cell cycle arrest in human A549 cells assessed as accumulation at S phase at 0.5 uM after 24 hrs by propidium iodide staining based flow cytometric analysis (reference value: 26.40%); format: functional
[9] = Cell cycle arrest in human A549 cells assessed as accumulation at G1 phase at 0.5 uM after 24 hrs by propidium iodide staining based flow cytometric analysis (reference value: 46.14%); format: functional
Mus musculus [10] = assay: Toxicity in BALB/c nude mouse xenografted with human A549 cells assessed as change in body weight at 20 mg/kg, iv administered once every 3 days for 23 days measured twice per week during compound dosing; format: organism-based; settings: in vivo
[11] = Antitumor activity against human A549 cells xenografted in BALB/c nude mouse assessed as reduction in tumor volume at 20 mg/kg, iv administered once every 3 days measured on day 9 post dose; format: functional
[12] = Antitumor activity against human A549 cells xenografted in BALB/c nude mouse assessed as reduction in tumor volume at 20 mg/kg, iv administered once every 3 days measured on day 3 post dose; format: functional
[13] = Antitumor activity against human A549 cells xenografted in BALB/c nude mouse assessed as reduction in tumor volume at 20 mg/kg, iv administered once every 3 days measured on day 23 post dose; format: functional
[14] = Antitumor activity against human A549 cells xenografted in BALB/c nude mouse assessed as reduction in tumor volume at 20 mg/kg, iv administered once every 3 days measured on day 6 post dose; format: functional
[15] = Antitumor activity against human A549 cells xenografted in BALB/c nude mouse assessed as reduction in tumor volume at 20 mg/kg, iv administered once every 3 days measured on day 21 post dose; format: functional
[16] = Antitumor activity against human A549 cells xenografted in BALB/c nude mouse assessed as reduction in tumor volume at 20 mg/kg, iv administered once every 3 days measured on day 18 post dose; format: functional
Mus musculus [17] = assay: Toxicity in BALB/c nude mouse xenografted with human A549 cells assessed as mortality at 20 mg/kg, iv administered once every 3 days for 23 days; format: organism-based; settings: in vivo
[18] = Antitumor activity against human A549 cells xenografted in BALB/c nude mouse assessed as reduction in tumor volume at 20 mg/kg, iv administered once every 3 days measured on day 15 post dose; format: functional
[19] = Antitumor activity against human A549 cells xenografted in BALB/c nude mouse assessed as reduction in tumor volume at 20 mg/kg, iv administered once every 3 days measured on day 12 post dose; format: functional

Row | Structure (SMILES) | IC50 [1] [µM] | IC50 (cells [2]) [µM] | IC50 (cells [3]) [µM] | IC50 (cells [4]) [µM] | other results
1 | CN1CCN(c2cc3c(cc2F)c(=O)c(-c2cccc(Cl)c2)cn3C2CC2)CC1 | 20.2 | 1.34 | 15.8 | 26.5 | –
2 | O=c1c(-c2ccccc2)cn(C2CC2)c2cc(N3CCNCC3)c(F)cc12 | 7.86 | 0.5 | 9.99 | 8.65 | inhibition [5]: Active; solubility [6]: > 400 µM
3 | CCn1cc(-c2ccccc2)c(=O)c2cc(F)c(N3CCNCC3)cc21 | 75.4 | 10.8 | 35.1 | 30.1 | –
4 | CCn1cc(-c2ccc(C#N)cc2)c(=O)c2cc(F)c(N3CCNCC3)cc21 | 18.7 | 1.09 | 14.6 | 12.6 | –
5 | CCn1cc(-c2cccc(Cl)c2)c(=O)c2cc(F)c(N3CCNCC3)cc21 | 18.4 | 0.78 | 16.1 | 15.3 | –
6 | CCn1cc(-c2ccc(Cl)cc2)c(=O)c2cc(F)c(N3CCNCC3)cc21 | 14.6 | 1.25 | 15.4 | 24 | –
7 | O=c1c(-c2ccc(Cl)cc2)cn(C2CC2)c2cc(N3CCNCC3)c(F)cc12 | 12.9 | 0.65 | 9.3 | 8.02 | inhibition [5]: Active; solubility [6]: > 400 µM
8 | CCn1cc(-c2ccc(F)cc2)c(=O)c2cc(F)c(N3CCNCC3)cc21 | 69.6 | 11.4 | 60.9 | 56.2 | –
9 | CC[C@@]1(O)C(=O)OCc2c1cc1n(c2=O)Cc2cc3ccccc3nc2-1 [CAMPTOTHECIN] | 1.27 | 0.46 | 1.41 | 1.52 | Activity [7]: 11.3%; Activity [8]: 48.1%; Activity [9]: 33.2%
10 | CC[C@@]1(O)C(=O)OCc2c1cc1n(c2=O)Cc2cc3cc(O)ccc3nc2-1 [HYDROXYCAMPTOTHECIN] | – | – | – | – | Activity (Mus musculus [10]): Toxic; T/C [11]: 54.55%; T/C [12]: 91.99%; T/C [13]: 21.68%; T/C [14]: 68.37%; T/C [15]: 20%; T/C [16]: 23.92%; Activity (Mus musculus [17]): Toxic; T/C [18]: 27.97%; T/C [19]: 29.44%
